Results: ChEMBL document CHEMBL2176897, “Synthesis and biological evaluation (in vitro and in vivo) of cyclic arginine-glycine-aspartate (RGD) peptidomimetic-paclitaxel conjugates targeting integrin αVβ3” (J Med Chem, 2012)
Calls of active or inactive are those of the source. No cut-off for these calls is given here.

Experiments:
[1] = Half life in human plasma at 10 uM by HPLC analysis; type: ADME, cell-free
[2] = Antitumor activity against cisplatin-resistant human IGROV1/Pt1 cells overexpressing integrin alphaVbeta3 receptors xenografted in athymic Swiss mouse assessed as tumor volume inhibition at 15 mg/kg, iv administered every 4 days for 4 times measured after 10 days relative to control; type: functional; conditions: IGROV-1
[3] = Cytostatic activity against human dermal fibroblasts assessed as growth inhibition at 64 to 1000 nM after 72 hrs by coulter counter analysis; conditions: skin fibroblast, 1 µM
[4] = Antitumor activity against cisplatin-resistant human IGROV1/Pt1 cells overexpressing integrin alphaVbeta3 receptors xenografted in athymic Swiss mouse assessed as tumor killing at 30 mg/kg, iv administered every 4 days for 4 times; type: functional, IGROV-1
[5] = Antitumor activity against cisplatin-resistant human IGROV1/Pt1 cells overexpressing integrin alphaVbeta3 receptors xenografted in athymic Swiss mouse assessed as tumor killing at 15 mg/kg, iv administered every 4 days for 4 times; type: functional, IGROV-1
Integrin alpha-V/beta-3 = Integrin alpha-V/beta-3 (Homo sapiens, UniProt P05106+P06756); test: Competitive inhibition of biotinylated vitronectin to integrin alphaVbeta3 receptor after 3 hrs by microplate reader analysis; type: protein-complex assay
IGROV-1 [6] = test: Cytotoxicity against cisplatin-resistant human IGROV1/Pt1 cells after 72 hrs by coulter counter analysis; type: functional, cell-based; conditions: IGROV-1, 72 h
Mus musculus [7] = test: Toxicity in athymic Swiss mouse xenografted with cisplatin-resistant human IGROV1/Pt1 cells overexpressing integrin alphaVbeta3 receptors assessed as body weight loss at 30 mg/kg, iv administered every 4 days for 4 times; type: organism-based, IGROV-1; design: dose 30 mg/kg, route intravenous; conditions: in vivo, 96 h
[8] = Stability of the compound in 0.9% NaCl in H2O/Cremophor EL/ethanol 90:5:5 v/v at 1.28 mM measured for 1 week by HPLC analysis; type: physicochemical; conditions: 168 h, 1280 µM
[9] = Half life in mouse plasma at 10 uM by HPLC analysis; type: ADME, cell-free
[10] = Solubility of the compound in 0.9% NaCl in H2O/Cremophor EL/ethanol 90:5:5 v/v at 1.28 mM measured for 1 week by HPLC analysis; type: physicochemical; conditions: 168 h, 1280 µM
[11] = Stability of the compound in 0.9% NaCl in H2O/Cremophor EL/ethanol 90:5:5 v/v at 1.92 mM after 2 days by HPLC analysis; type: physicochemical; conditions: 48 h, 1920 µM
PANC-1 = test: Cytotoxicity against human PANC1 cells after 72 hrs by coulter counter analysis; type: functional, cell-based; conditions: PANC-1, 72 h
[12] = Selectivity ratio of IC50 for integrin alphaVbeta5 receptor to IC50 for integrin alphaVbeta3 receptor
SK-OV-3 = test: Cytotoxicity against human SKOV3 cells after 72 hrs by coulter counter analysis; type: functional, cell-based; conditions: SK-OV-3, 72 h
[13] = Solubility of the compound in 0.9% NaCl in H2O/Cremophor EL/ethanol 90:5:5 v/v at 1.92 mM after 2 days by HPLC analysis; type: physicochemical; conditions: 48 h, 1920 µM
IGROV-1 [14] = test: Induction of abberant mitosis in cisplatin-resistant human IGROV1/Pt1 cells overexpressing integrin alphaVbeta3 receptors xenografted in athymic Swiss mouse at 30 mg/kg, iv measured 24 hrs post second treatment by hematoxylin and eosin staining; type: functional, organism-based; design: dose 30 mg/kg
U2OS = test: Cytotoxicity against human U2OS cells after 72 hrs by coulter counter analysis; type: functional, cell-based
IGROV-1 [15] = test: Cytotoxicity against human IGROV1 cells after 72 hrs by coulter counter analysis; type: functional, cell-based; conditions: IGROV-1, 72 h
IGROV-1 [16] = test: Antitumor activity against cisplatin-resistant human IGROV1/Pt1 cells overexpressing integrin alphaVbeta3 receptors xenografted in athymic Swiss mouse assessed as absence of disease at 30 mg/kg, iv administered every 4 days for 4 times measured up to 10 days; type: functional, organism-based; design: dose 30 mg/kg
Mus musculus [17] = test: Toxicity in athymic Swiss mouse xenografted with cisplatin-resistant human IGROV1/Pt1 cells overexpressing integrin alphaVbeta3 receptors assessed as body weight loss at 15 mg/kg, iv administered every 4 days for 4 times; type: organism-based, IGROV-1; design: dose 15 mg/kg, route intravenous; conditions: in vivo, 96 h
IGROV-1 [18] = test: Antitumor activity against cisplatin-resistant human IGROV1/Pt1 cells overexpressing integrin alphaVbeta3 receptors xenografted in athymic Swiss mouse assessed as disappearance of tumor lasting at 15 mg/kg, iv administered every 4 days for 4 times measured up to 10 days; type: functional, organism-based; design: dose 15 mg/kg
IGROV-1 [19] = test: Induction of abberant mitosis in cisplatin-resistant human IGROV1/Pt1 cells overexpressing integrin alphaVbeta3 receptors xenografted in athymic Swiss mouse at 30 mg/kg, iv measured 24 hrs post fourth treatment by hematoxylin and eosin staining; type: functional, organism-based; design: dose 30 mg/kg
Integrin alpha-V/beta-5 = Integrin alpha-V/beta-5 (Homo sapiens, UniProt P06756+P18084); test: Competitive inhibition of biotinylated vitronectin to integrin alphaVbeta5 receptor after 3 hrs by microplate reader analysis; type: protein-complex assay
MIA PaCa-2 = test: Cytotoxicity against human MIAPaCa2 cells after 72 hrs by coulter counter analysis; type: functional, cell-based; conditions: MIA PaCa-2, 72 h
[20] = Antitumor activity against cisplatin-resistant human IGROV1/Pt1 cells overexpressing integrin alphaVbeta3 receptors xenografted in athymic Swiss mouse assessed as tumor volume inhibition at 30 mg/kg, iv administered every 4 days for 4 times measured after 10 days relative to control; type: functional; conditions: IGROV-1

Structure (SMILES): CC(=O)O[C@H]1C(=O)[C@@]2(C)[C@H]([C@H](OC(=O)c3ccccc3)[C@]3(O)C[C@H](OC(=O)[C@H](OC(=O)CCC(=O)NCc4ccc(CN5C(=O)[C@H]6CC(=O)N[C@@H](CCCNC(=N)N)C(=O)NCC(=O)N[C@@H](CC(=O)O)C(=O)NC[C@H]5C(=O)N6)cc4)[C@@H](NC(=O)c4ccccc4)c4ccccc4)C(C)=C1C3(C)C)[C@]1(OC(C)=O)CO[C@@H]1C[C@@H]2O
- half-life at 10 µM [1]: 2.38 h
- inhibition in vivo at 15 mg/kg [2]: 64%
- growth inhibition (GI) [3]: Non-toxic
- LCK [4]: 1.4
- LCK [5]: 0.3
- IC50 (Integrin alpha-V/beta-3): 5.2 nM
- IC50 (IGROV-1 [6]): 4.9 nM
- Activity (Mus musculus [7]): 3%
- Stability [8]: Stable
- half-life at 10 µM [9]: 2.75 h
- solubility [10]: soluble
- Stability [11]: Unstable
- IC50 (PANC-1): 2.4 nM
- Ratio IC50 [12]: 20
- IC50 (SK-OV-3): 1.2 nM
- solubility [13]: Insoluble
- Activity (IGROV-1 [14]): Active
- IC50 (U2OS): 12.8 nM
- IC50 (IGROV-1 [15]): 61.3 nM
- Activity (IGROV-1 [16]): Active
- Activity (Mus musculus [17]): 0%
- Activity (IGROV-1 [18]): Active
- Activity (IGROV-1 [19]): Active
- IC50 (Integrin alpha-V/beta-5): 219 nM
- IC50 (MIA PaCa-2): 2.3 nM
- inhibition in vivo at 30 mg/kg [20]: 85%
